From PubChem BioAssay AID192 (DTP/NCI, 2004) come the findings set out here.

The structures appear in SMILES notation. Several values for one entry are separate records, joined by “and”; a condition that tells them apart may be missing. Equal entries are not always repeated. Inconclusive results and toxic doses are left out.

The test system of this assay is BDF1 mice, B16 melanoma ip, median survival T/C. The assay can be described thus: NCI In Vivo Anticancer Drug Screen. Data for tumor model B16 Melanoma (intraperitoneal) in B6D2F1 (BDF1) mice. The following applies: endpoint: median survival time, higher = longer survival. The essentials:
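Transplantable tumor model; survival or tumor size measured; reported as T/C, treated over vehicle control.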

Setting [1] is: dose: 100.0 mg/kg/injection, schedule: Q01DX009 (ip), vehicle: saline with Tween-80.
The mark [2] stands for this setting: dose: 12.5 mg/kg/injection, schedule: Q01DX009 (ip), vehicle: saline.
[3] abbreviates: dose: 50.0 mg/kg/injection, schedule: Q01DX009 (ip), vehicle: Klucel (hydroxypropylcellulose) (HPC).
Where [4] appears, read: dose: 50.0 mg/kg/injection, schedule: Q01DX009 (ip), vehicle: saline with Tween-80.
Setting [5] is: dose: 200.0 mg/kg/injection, schedule: Q01DX009 (ip), vehicle: saline with Tween-80.
[6] abbreviates: dose: 6.25 mg/kg/injection, schedule: Q01DX009 (ip), vehicle: Klucel (hydroxypropylcellulose) (HPC).
[7] abbreviates: dose: 12.5 mg/kg/injection, schedule: Q01DX009 (ip), vehicle: Klucel (hydroxypropylcellulose) (HPC).

With `C/C=C1\CN(C)[C@H]2Cc3c([nH]c4ccccc34)[C@@H](c3cc4[nH]c5c(c4cc3OC)CCN3C[C@H]4C[C@H](CC)[C@H]3[C@@]5(C(=O)OC)C4)C[C@H]1C2C(=O)OC` (some centres not stated), the T/C was 98 % of control (dose: 2.5 mg/kg/injection, schedule: Q01DX009 (ip), vehicle: suspension in saline); 100 % of control (dose: 3.0 mg/kg/injection, schedule: Q01DX009 (ip), vehicle: saline with Tween-80); 101 % of control (dose: 5.0 mg/kg/injection, schedule: Q01DX009 (ip), vehicle: suspension in saline); 95 % of control (dose: 6.0 mg/kg/injection, schedule: Q01DX009 (ip), vehicle: saline with Tween-80); 99 % of control (dose: 10.0 mg/kg/injection, schedule: Q01DX009 (ip), vehicle: suspension in saline); 106 % of control (dose: 12.0 mg/kg/injection, schedule: Q01DX009 (ip), vehicle: saline with Tween-80). In addition, the T/C by setting is: (dose: 25.0 mg/kg/injection, schedule: Q04DX003 (ip), vehicle: saline with Tween-80) 90 % of control; under setting [1], 87 % of control.
Regarding `c1ccc([As+](c2ccccc2)(c2ccccc2)c2ccccc2)cc1`, the T/C (dose: 1.87 mg/kg/injection, schedule: Q01DX009 (ip), vehicle: Klucel (hydroxypropylcellulose) (HPC)) is 122 % of control and the T/C (dose: 3.75 mg/kg/injection, schedule: Q01DX009 (ip), vehicle: Klucel (hydroxypropylcellulose) (HPC)) is 110 % of control.
In the case of `C/C=C(/C)C(=O)O[C@H]1CCN2CC=C(COC(=O)[C@@](O)([C@H](C)OC)C(C)(C)O)[C@H]12`, the T/C runs as follows: under setting [2], 114 % of control; (dose: 25.0 mg/kg/injection, schedule: Q01DX009 (ip), vehicle: saline) 104 % of control.
For `Brc1ccc(C=C2c3ccccc3-c3ccccc32)cc1`, the T/C was 97 % of control (dose: 100.0 mg/kg/injection, schedule: Q04DX003 (ip), vehicle: Klucel (hydroxypropylcellulose) (HPC)); 105 % of control (dose: 200.0 mg/kg/injection, schedule: Q04DX003 (ip), vehicle: Klucel (hydroxypropylcellulose) (HPC)); 102 % of control (dose: 400.0 mg/kg/injection, schedule: Q04DX003 (ip), vehicle: Klucel (hydroxypropylcellulose) (HPC)).
Turning to `CCN(C(=O)c1ccc(C(=O)N(CC)c2ccccc2)cc1)c1ccccc1`, the T/C under setting [3] is 119 % of control; the T/C (dose: 100.0 mg/kg/injection, schedule: Q01DX009 (ip), vehicle: Klucel (hydroxypropylcellulose) (HPC)) was 114 % of control; the T/C (dose: 200.0 mg/kg/injection, schedule: Q01DX009 (ip), vehicle: Klucel (hydroxypropylcellulose) (HPC)) is 111 % of control.
As for `O=C(CCN1CC1)Nc1cccc(NC(=O)CCN2CC2)c1`, the T/C is, setting by setting: (dose: 2.5 mg/kg/injection, schedule: Q01DX009 (ip), vehicle: Klucel (hydroxypropylcellulose) (HPC)) 156 % of control; (dose: 5.0 mg/kg/injection, schedule: Q01DX009 (ip), vehicle: Klucel (hydroxypropylcellulose) (HPC)) 153 % of control and 173 % of control; (dose: 10.0 mg/kg/injection, schedule: Q01DX009 (ip), vehicle: Klucel (hydroxypropylcellulose) (HPC)) 211 % of control and 268 % of control.
For `CC1(C)c2ccccc2C(C)(C(Cl)(Cl)Cl)c2ccc(Cl)cc21` (configuration not stated), the T/C was 97 % of control under setting [4]; 103 % of control under setting [1]; 91 % of control under setting [5]; 93 % of control (dose: 400.0 mg/kg/injection, schedule: Q01DX009 (ip), vehicle: saline with Tween-80).
With `O=[N+]([O-])/C=C/C(Cl)(Cl)Cl`, the T/C under setting [6] was 100 % of control and the T/C under setting [7] is 96 % of control.
Regarding `CN(C)N=Nc1ccccc1C(=O)NC#N`, the T/C reads like this: (dose: 18.75 mg/kg/injection, schedule: Q01DX009 (ip), vehicle: Klucel (hydroxypropylcellulose) (HPC)) 95 % of control; (dose: 37.5 mg/kg/injection, schedule: Q01DX009 (ip), vehicle: Klucel (hydroxypropylcellulose) (HPC)) 105 % of control.
Consider `COC(=O)C(CCCN)NC(=O)c1ccccc1` (configuration not stated), for which the T/C is 95 % of control (dose: 50.0 mg/kg/injection, schedule: Q01DX009 (ip), vehicle: saline); 102 % of control (dose: 100.0 mg/kg/injection, schedule: Q01DX009 (ip), vehicle: saline); 107 % of control (dose: 200.0 mg/kg/injection, schedule: Q01DX009 (ip), vehicle: saline); 97 % of control (dose: 400.0 mg/kg/injection, schedule: Q01DX009 (ip), vehicle: saline).
Regarding `O=S(=O)(Nc1ccc(-c2ccccc2)cc1)c1ccccc1`, the T/C under setting [4] is 100 % of control, the T/C under setting [1] was 91 % of control and the T/C under setting [5] is 89 % of control.
With `S=c1nc[nH]c2nc[nH]c12.[Ag]`, the T/C (dose: 300.0 mg/kg/injection, schedule: Q01DX009 (ip), vehicle: carboxymethylcellulose (CMC)) was 118 % of control.
Take `CC(=O)OC1C2(CC3N4C(=O)C5(CO)SSC4(CC31O)C(=O)N5C)OC(C)C(C)(C)C2=O` (configuration not stated): the T/C reads like this: (dose: 0.08 mg/kg/injection, schedule: Q01DX009 (ip), vehicle: saline with Tween-80) 96 % of control; (dose: 0.16 mg/kg/injection, schedule: Q01DX009 (ip), vehicle: saline with Tween-80) 101 % of control; (dose: 0.3 mg/kg/injection, schedule: Q01DX009 (ip), vehicle: saline with Tween-80) 88 % of control; (dose: 0.6 mg/kg/injection, schedule: Q01DX009 (ip), vehicle: saline with Tween-80) 98 % of control.
In the case of `FC(F)(F)c1ccc2c(c1)N(CCCNCCN1CCOCC1)c1ccccc1S2`, the T/C (dose: 1.56 mg/kg/injection, schedule: Q01DX009 (ip), vehicle: saline) is 105 % of control; the T/C (dose: 1.56 mg/kg/injection, schedule: Q04DX003 (ip), vehicle: saline) is 93 % of control and 95 % of control; the T/C (dose: 3.12 mg/kg/injection, schedule: Q01DX009 (ip), vehicle: saline) was 88 % of control; the T/C (dose: 3.12 mg/kg/injection, schedule: Q04DX003 (ip), vehicle: saline) is 102 % of control; the T/C (dose: 6.25 mg/kg/injection, schedule: Q04DX003 (ip), vehicle: saline) is 100 % of control and 105 % of control; the T/C under setting [2] is 100 % of control. Moreover, the T/C is 93 % of control and 107 % of control (dose: 12.5 mg/kg/injection, schedule: Q04DX003 (ip), vehicle: saline); 99 % of control and 100 % of control (dose: 25.0 mg/kg/injection, schedule: Q04DX003 (ip), vehicle: saline); 90 % of control (dose: 50.0 mg/kg/injection, schedule: Q04DX003 (ip), vehicle: saline).
Consider `[Cl][Hg][CH]1CCC2OC1CC[CH]2[Hg][Cl]` (configuration not stated), for which, where the note is “dose: 6.25 mg/kg/injection, schedule: Q01DX009 (ip), vehicle: saline with Tween-80”, the T/C was 104 % of control.
Regarding `CCCCCCCCCCCc1n(Cc2ccccc2)cc[n+]1C`, the T/C runs as follows: (dose: 0.75 mg/kg/injection, schedule: Q01DX009 (ip), vehicle: saline) 86 % of control; (dose: 1.5 mg/kg/injection, schedule: Q01DX009 (ip), vehicle: saline) 90 % of control; (dose: 3.0 mg/kg/injection, schedule: Q01DX009 (ip), vehicle: saline) 97 % of control.
Regarding `Cc1ccccc1CN1CCN(CCOC(c2ccccc2)c2ccccc2Cl)CC1` (configuration not stated), the T/C by setting is: (dose: 3.12 mg/kg/injection, schedule: Q01DX009 (ip), vehicle: Klucel (hydroxypropylcellulose) (HPC)) 93 % of control and 94 % of control; under setting [6], 93 % of control; under setting [7], 91 % of control and 100 % of control; (dose: 25.0 mg/kg/injection, schedule: Q01DX009 (ip), vehicle: Klucel (hydroxypropylcellulose) (HPC)) 86 % of control and 89 % of control; under setting [3], 86 % of control.
Take `CC1CCCC(C)N1NC1=NCCO1` (configuration not stated): the T/C is 97 % of control (dose: 12.5 mg/kg/injection, schedule: Q01DX009 (ip), vehicle: saline with Tween-80); 102 % of control (dose: 25.0 mg/kg/injection, schedule: Q01DX009 (ip), vehicle: saline with Tween-80); 97 % of control under setting [4].
